Experiments:
[1] = refractive index (Na D-line) (dimensionless); conditions: 101.33 kPa, Liquid, Standard Abbe refractometry
[2] = 101.33 kPa, Liquid; for viscosity: Falling or rolling sphere viscometry; for mass density: Vibrating tube method
[3] = xn = mol fraction of the nth substance listed; conditions: 101 kPa, Liquid
[4] = refractive index (Na D-line) (dimensionless); xn = mol fraction of the nth substance listed; conditions: 101 kPa, Liquid

CO [methanol]
Conditions | mass density, [2] [kg/m3] | refractive index, [1] | viscosity, [2] [mPa·s]
298.15 K | 786.4 | 1.3266 | 0.532
303.15 K | 782.2 | 1.3243 | 0.515
308.15 K | 776.7 | 1.3224 | 0.465
313.15 K | 772.9 | 1.3208 | 0.441

CCCCn1cc[n+](C)c1.C[C@H](N)C(=O)[O-] [3-butyl-1-methyl-1H-imidazolium L-alaninate] + OCc1ccccc1
Conditions | mass density, [3] [kg/m3] | refractive index, [4] | viscosity, [3] [mPa·s]
298.15 K, x1 = 0.1012 | 1052.86 | 1.5355 | 6.989
298.15 K, x1 = 0.1939 | 1059.8 | 1.534 | 8.647
298.15 K, x1 = 0.3103 | 1066.02 | 1.532 | 11.9
298.15 K, x1 = 0.3971 | 1069.57 | 1.5304 | 14.7
298.15 K, x1 = 0.4864 | 1072.4 | 1.5287 | 18.75
298.15 K, x1 = 0.6015 | 1075.14 | 1.5264 | 26.24
298.15 K, x1 = 0.6945 | 1076.58 | 1.5245 | 34.42
298.15 K, x1 = 0.8015 | 1077.73 | 1.5223 | 46.72
298.15 K, x1 = 0.9026 | 1078.72 | 1.5203 | 61.33
303.15 K, x1 = 0.1012 | 1048.56 | 1.5333 | 5.691
303.15 K, x1 = 0.1939 | 1055.61 | 1.5319 | 6.738
303.15 K, x1 = 0.3103 | 1061.88 | 1.53 | 9.274
303.15 K, x1 = 0.3971 | 1065.49 | 1.5285 | 11.46
303.15 K, x1 = 0.4864 | 1068.42 | 1.5268 | 14.62
303.15 K, x1 = 0.6015 | 1071.16 | 1.5246 | 20.5
303.15 K, x1 = 0.6945 | 1072.71 | 1.5227 | 26.62
303.15 K, x1 = 0.8015 | 1073.95 | 1.5206 | 35.94
303.15 K, x1 = 0.9026 | 1074.98 | 1.5186 | 46.96
308.15 K, x1 = 0.1012 | 1045.09 | 1.5308 | 4.951
308.15 K, x1 = 0.1939 | 1052.25 | 1.5295 | 5.953
308.15 K, x1 = 0.3103 | 1058.75 | 1.5277 | 7.695
308.15 K, x1 = 0.3971 | 1062.51 | 1.5263 | 9.977
308.15 K, x1 = 0.4864 | 1065.53 | 1.5247 | 12.61
308.15 K, x1 = 0.6015 | 1068.43 | 1.5226 | 17.36
308.15 K, x1 = 0.6945 | 1070.11 | 1.5209 | 22.13
308.15 K, x1 = 0.8015 | 1071.46 | 1.5189 | 29.01
308.15 K, x1 = 0.9026 | 1072.58 | 1.517 | 36.89
313.15 K, x1 = 0.1012 | 1041.62 | 1.5286 | 4.28
313.15 K, x1 = 0.1939 | 1048.77 | 1.5273 | 5.515
313.15 K, x1 = 0.3103 | 1055.35 | 1.5256 | 7.175
313.15 K, x1 = 0.3971 | 1059.07 | 1.5242 | 8.904
313.15 K, x1 = 0.4864 | 1062.18 | 1.5227 | 11.02
313.15 K, x1 = 0.6015 | 1065.2 | 1.5206 | 15.01
313.15 K, x1 = 0.6945 | 1066.87 | 1.5189 | 18.65
313.15 K, x1 = 0.8015 | 1068.31 | 1.517 | 24.47
313.15 K, x1 = 0.9026 | 1069.52 | 1.5152 | 30.69
